Reference: ChEMBL document CHEMBL4715857, “Structure-based linker exploration: Discovery of 1-ethyl-1H-indole analogs as novel ATX inhibitors” (Bioorg Med Chem, 2020)

Biological target: Autotaxin (Homo sapiens, UniProt Q13822)
Test: Inhibition of glycosylated human ATX using FS-3 as substrate preincubated for 45 mins followed by substrate addition and measured every 1 min for 30 mins by fluorescence microplate reader assay

Compound	IC50
CCn1cc(C(=O)O)c2cc(-c3nc(CN(CO)CO)cs3)ccc21	0.71 µM
CCn1cc(C(=O)O)c2cc(-c3nc(CN4CCCC4)cs3)ccc21	0.93 µM
CCn1cc(C(=O)O)c2cc(-c3nc(CN4CCC[C@H]4CO)cs3)ccc21	0.59 µM
CCn1cc(C(=O)N/N=C2\CCc3cc(OC)c(OC)cc32)c2cc(-c3nc(CN4CCOCC4)cs3)ccc21	8.27 µM
CCn1cc(C(=O)O)c2cc(-c3nc(CN4CCC(O)CC4)cs3)ccc21	0.68 µM
CCn1cc(NC(=O)NCc2ccc(F)cc2)c2cc(NC(=O)c3ccc(CN4CCC(O)CC4)cc3)ccc21	0.0023 µM
CCn1cc(NC(=O)NCc2ccc(F)cc2)c2cc(NC(=O)c3ccc(CN4CCN(C)CC4)cc3)ccc21	0.19 µM
CCn1cc(NC(=O)NCc2ccc(F)cc2)c2cc(NC(=O)c3ccc(CN4CCN(CCO)CC4)cc3)ccc21	0.101 µM
CCn1cc(C(=O)O)c2cc(-c3nc(CN4CCN(C)CC4)cs3)ccc21	1.29 µM
CCn1cc(NC(=O)NCc2ccc(F)cc2)c2cc(NC(=O)c3ccc(CN4CCC(C)CC4)cc3)ccc21	0.37 µM
CCn1cc(C(=O)O)c2cc(-c3nc(CN4CCN(CCO)CC4)cs3)ccc21	0.41 µM
CCn1cc(NC(=O)NCc2ccc(Cl)cc2)c2cc(NC(=O)c3ccc(CN4CCCC4)cc3)ccc21	0.351 µM
CCn1cc(C(=O)N/N=C/c2coc3ccccc3c2=O)c2cc(-c3nc(CN4CCOCC4)cs3)ccc21	7.24 µM
CCn1cc(NC(=O)NCc2ccc(Cl)cc2)c2cc(NC(=O)c3ccc(CN4CCC(O)CC4)cc3)ccc21	0.0131 µM

Now from value to compound:

IC50	Compound
0.82 µM	CCn1cc(C(=O)O)c2cc(-c3nc(CN4CCOCC4)cs3)ccc21
3.49 µM	CCn1cc(C(=O)N/N=C/c2ccc(F)c(F)c2)c2cc(-c3nc(CN4CCOCC4)cs3)ccc21
0.53 µM	CCn1cc(NC(=O)NCc2ccc(F)cc2)c2cc(NC(=O)c3ccc(CN4CCCCC4)cc3)ccc21
4.05 µM	CCn1cc(C(=O)N/N=C/c2ccc(F)cc2F)c2cc(-c3nc(CN4CCOCC4)cs3)ccc21
6.37 µM	CCn1cc(C(=O)N/N=C/c2ccc(F)cc2Cl)c2cc(-c3nc(CN4CCOCC4)cs3)ccc21
0.252 µM	CCn1cc(NC(=O)NCc2ccc(F)cc2)c2cc(-c3nc(CN4CCOCC4)cs3)ccc21
0.313 µM	CCn1cc(NC(=O)NCc2ccc(F)cc2)c2cc(-c3nc(CN4CCC(O)CC4)cs3)ccc21
> 10 µM	CCn1cc(C(=O)N/N=C/c2c(O)ccc3ccccc23)c2cc(-c3nc(CN4CCOCC4)cs3)ccc21
0.28 µM	CCn1cc(NC(=O)NCc2ccc(F)cc2)c2cc(NC(=O)c3ccc(CN4CCCC4)cc3)ccc21
0.156 µM	CCn1cc(NC(=O)NCc2ccc(Cl)cc2)c2cc(-c3nc(CN4CCN(CCO)CC4)cs3)ccc21
0.107 µM	CCn1cc(NC(=O)NCc2ccc(Cl)cc2)c2cc(NC(=O)c3ccc(CN4CCOCC4)cc3)ccc21
0.11 µM	CCn1cc(NC(=O)NCc2ccc(F)cc2)c2cc(NC(=O)c3ccc(CN4CCOCC4)cc3)ccc21
0.199 µM	CCn1cc(NC(=O)NCc2ccc(Cl)cc2)c2cc(-c3nc(CN4CCN(C)CC4)cs3)ccc21
6.14 µM	CCn1cc(C(=O)N/N=C/c2ccc(C(F)(F)F)cc2)c2cc(-c3nc(CN4CCOCC4)cs3)ccc21
0.234 µM	CCn1cc(NC(=O)NCc2ccc(F)cc2)c2cc(-c3nc(CN(CCO)CCO)cs3)ccc21
> 10 µM	CCn1cc(C(=O)N/N=C(\C)c2ccc(OC)cc2)c2cc(-c3nc(CN4CCOCC4)cs3)ccc21
> 10 µM	CCn1cc(C(=O)N/N=C2\CCc3cc(Br)ccc32)c2cc(-c3nc(CN4CCOCC4)cs3)ccc21
9.23 µM	CCn1cc(C(=O)N/N=C(\C)c2ccc(F)cc2F)c2cc(-c3nc(CN4CCOCC4)cs3)ccc21
